This note sets out measurements from patent US4120857A, “Derivatives of 1,2,3,3-tetramethyl-2-azabicyclo[2.2.2]octan-5-endo-ol” (priority 1977, dated 1978).

What is called ED50 is the midpoint of the dose-response relation.

Experiment [1] relates to genetically hypertensive (spontaneously hypertensive) rats of the Okamato strain. Put plainly: Spontaneously Hypertensive Rat Test (antihypertensive activity). It is filed as in vivo. The settings on record: po, compounds dosed orally, five animals per test dose, read-out: MED (minimum effective dose), dose required to give a minimum of a 20 mm Hg drop in blood pressure from control. From the text: Clin. Med. 78:957-962 (1971). Five animals were used for each test dose. Results of the test are expressed in the table below as the MED (minimum effective dose) or dose required to give a minimum of a 20 mm Hg drop in blood pressure from control. | *compounds dosed orally

For experiment [2], the system named is ventricular fibrillation by chloroform. Put plainly: Mouse Chloroform Test (antiarrhythmic activity). The class given is in vivo, female swiss albino mice. Particulars: mice; for ED50: Mus musculus, read-out: ED50, dose required to protect 50% of the test animals against development of ventricular fibrillation by chloroform. How it is done: 160:22-30 (1968). The test compounds were administered orally (p.o.) or intraperitoneally (i.p.) to female swiss albino mice weighing 16-24 grams. The arrhythmia induced by the chloroform was monitored by electrocardiogram recording and the normal and abnormal heart beats were tabulated.

For the next experiment, the system named is corneal reflex. Put plainly: Local Anesthetic Test (corneal reflex procedure). It is filed as in vivo, rabbits. Particulars: one drop into the conjunctival sac of one rabbit eye; isotonic saline. Here is the method:
In this test a corneal reflex was elicited in rabbits by lightly touching the cornea with a stiff hair or bristle which normally would cause the rabbit to blink. The assay was carried out using initially a 2% solution or suspension of the test compound in isotonic saline. A cup or pouch was formed of the lower eyelid by pulling down the lower lid, and one drop of the test compound was instilled into the conjunctival sac of one eye. The other eye serves as a control. The corneal reflex was tested every fifteen minutes until the reflex returned to normal. If the reflex could be elicited 3 out of 5 times, then there was considered to be no local anesthetic effect. If the reflex was blocked and the compound was determined to be a local anesthetic, lower concentrations were tested to determine the minimum concentration needed for local anesthetic activity. Results for several of the compounds of the present invention are expressed in the table below as the MEC (minimum effective concentration) or minimum concentration of compound required for local anesthetic activity.

Molecules are shown by their SMILES. Like-named read-outs stand apart in the source and are kept apart here.

As to `CC(=O)O[C@@H]1C[C@@]2(C)CC[C@@H]1C(C)(C)N2C` (relative stereo) [Example 1, 5-endo-Acetoxy-1,2,3,3-tetramethyl-2-azabicyclo[2.2.2]-octane], in experiment [1], the minimal effective dose was found to be 12.5 mg/kg.
Take `CN1C(C)(C)[C@H]2CC[C@]1(C)C[C@H]2OC(=O)C1CC1` (relative stereo) [Example 2A, 5-endo-Cyclopropylcarbonyloxy-1,2,3,3-tetramethyl-2-azabicyclo-[2.2.2]octane]: the minimal effective dose in experiment [1] came to 25 mg/kg.
Turning to `COc1cc(C(=O)O[C@@H]2C[C@@]3(C)CC[C@@H]2C(C)(C)N3C)cc(OC)c1OC` (relative stereo) [Example 2C, 5-endo-(3,4,5-Trimethoxybenzoyl-oxy)-1,2,3,3-tetramethyl-2-azabicyclo[2.2.2]octane], in experiment [2] (ip), the median effective dose (ED50) came out at 50 mg/kg.
Turning to `CCCC(=O)O[C@@H]1C[C@@]2(C)CC[C@@H]1C(C)(C)N2C` (relative stereo) [Example 2D, 5-endo-Butyryloxy-1,2,3,3-tetramethyl-2-azabicyclo[2.2.2]-octane], the ED50 in experiment [2] (po) is 80 mg/kg.
For `CN1C(C)(C)[C@H]2CC[C@]1(C)C[C@H]2OC(=O)c1ccc(N)cc1` (relative stereo) [Example 2F, 5-endo-(p-Aminobenzoyloxy)-1,2,3,3-tetramethyl-2-azabicyclo-[2.2.2]octane], the “MEC (minimum effective concentration), minimum concentration of compound required for local anesthetic activity” value (from here on “MEC (minimum effective concentration)”) in the experiment with corneal reflex is given as 2.0%. In addition, the ED50 came out at 6.3 mg/kg in experiment [2] (ip) and 25 mg/kg in experiment [2] (po).
Consider `CN1C(C)(C)[C@H]2CC[C@]1(C)C[C@H]2OC(=O)C(c1ccccc1)c1ccccc1` (relative stereo) [Example 2G, 5-endo-(Diphenylacetoxy)-1,2,3,3-tetramethyl-2-azabicyclo[2.2.2]-octane], for which the “MEC (minimum effective concentration)” value with corneal reflex was determined as 0.25%. The ED50 is 12.5 mg/kg in experiment [2] (ip) and 20 mg/kg in experiment [2] (po).
On to `CN1C(C)(C)[C@H]2CC[C@]1(C)C[C@H]2OCCCNC(=O)c1ccccc1` (relative stereo) [Example 3, 5-endo-(3-Benzoylaminopropyloxy)-1,2,3,3-tetramethyl-2-azabicyclo[2.2.2]octane], for which the “MEC (minimum effective concentration)” value in the experiment on corneal reflex was found to be 0.5%. In addition, the ED50 in experiment [2] (po) came to 10 mg/kg.
Turning to `CN1C(C)(C)[C@H]2CC[C@]1(C)C[C@H]2OCCCNC(=O)C(c1ccccc1)c1ccccc1` (relative stereo) [Example 4, 5-endo-(3-Diphenylacetylaminopropyloxy)-1,2,3,3-tetramethyl-2-azabicyclo[2.2.2]octane], the “MEC (minimum effective concentration)” value with corneal reflex amounted to 0.5%. In addition, in experiment [2] (po), the ED50 was 10 mg/kg.
Consider `CN1C(C)(C)[C@H]2CC[C@]1(C)C[C@H]2OC(=O)Nc1ccccc1` (relative stereo) [Example 5, 5-endo-Phenylcarbamoyloxy-1,2,3,3-tetramethyl-2-azabicyclo[2.2.2]octane], for which the median effective dose (ED50) in experiment [2] (po) was determined as 44 mg/kg.
On to `CN1C2(C)CCC(C(OC(=O)c3ccccc3)C2)C1(C)C` (stereo not drawn) [Example 2B, 5-endo-Benzoyloxy-1,2,3,3-tetramethyl-2-azabicyclo(2.2.2]-octane], for which the “ED50, dose required to protect 50% of the test animals against development of ventricular fibrillation by chloroform” value in experiment [2] (i.p.) was determined as 50 mg/kg.
